*1 amine or outer side, *2 acyl side, *3 side chain or, on linkers, in order; H or OH if unused. Where a SMILES comes first, the peptide text is derived from it. Bridges are numbered along the chain shown (N, C = ends). [ ]: non-standard residue; d: D form. Maleimide(3,4-diyl) = O=C1NC(=O)C([*:2])=C1[*:1]; hCys = N[C@@H](CCS)C(=O)O

Data set [1] in a line: circular dichroism. As to conditions: 10 mM sodium phosphate; pH 7.2; 25 °C; 250 uM. On the technique in general: Circular dichroism is the unequal absorption of left and right circularly polarised light.
Data set [2] in a line: Two-component bis-thiol stapling with 2,3-dibromomaleimide (200 uM), TCEP (100 uM); thioether formation followed at 395 nm. As to conditions: the molecule shown is the open-chain precursor, 50 mM aq. phosphate buffer pH 6.0, 0.1 mM, 20.0 °C, 1.0 h.
Data set [3] can be described thus: Two-component i,i+4 bis-thiol stapling: TCEP (1.1 eq) reduction for 1 h, then 2,3-dibromomaleimide (1.1 eq) for 1 h; two S-C(maleimide) thioether bonds formed. As to conditions: the molecule shown is the open-chain precursor, MeCN/50 mM aq. ammonium acetate pH 7.4 (1:1), 3.3 mM, 14 steps.

On to `CC(=O)N[C@@H]1CSC2=C(SC[C@@H](C(N)=O)NC(=O)[C@H](C)NC(=O)[C@H](C)NC(=O)[C@H](C)NC1=O)C(=O)NC2=O`, for which the helicity in data set [1] came out at 28 rel %.

Compound `CC(=O)N[C@@H]1CSC2=C(SC[C@H](C(N)=O)NC(=O)[C@H](C)NC(=O)[C@H](C)NC(=O)[C@H](C)NC1=O)C(=O)NC2=O` registered a helicity in data set [1] of 13 rel %.

In data set [1], `CC(=O)N[C@H]1CSC2=C(SC[C@@H](C(N)=O)NC(=O)[C@H](C)NC(=O)[C@H](C)NC(=O)[C@H](C)NC1=O)C(=O)NC2=O` yielded a helicity of 25 rel %.

Compound `CC(=O)N[C@H]1CSC2=C(SC[C@H](C(N)=O)NC(=O)[C@H](C)NC(=O)[C@H](C)NC(=O)[C@H](C)NC1=O)C(=O)NC2=O` yielded a helicity in data set [1] of 17 rel %.

In turn, `CC(=O)N[C@H]1CSC2=C(SCC[C@@H](C(N)=O)NC(=O)[C@H](C)NC(=O)[C@H](C)NC(=O)[C@H](C)NC1=O)C(=O)NC2=O` (Ac-CAAA[hCys]-NH2; linker 1-5 via Maleimide(3,4-diyl)) showed a helicity in data set [1] of 48 rel %.

`CC(=O)N[C@H]1CCSC2=C(SC[C@@H](C(N)=O)NC(=O)[C@H](C)NC(=O)[C@H](C)NC(=O)[C@H](C)NC1=O)C(=O)NC2=O` (Ac-[hCys]AAAC-NH2; linker 1-5 via Maleimide(3,4-diyl)) had a helicity in data set [1] of 11 rel %.

Regarding `CC(=O)N[C@H]1CCSC2=C(SCC[C@@H](C(N)=O)NC(=O)[C@H](C)NC(=O)[C@H](C)NC(=O)[C@H](C)NC1=O)C(=O)NC2=O` (Ac-[hCys]AAA[hCys]-NH2; linker 1-5 via Maleimide(3,4-diyl)), the helicity in data set [1] was 13 rel %.

In data set [2] (19-membered ring), `CC(=O)N[C@@H](CSC1=C(Br)C(=O)NC1=O)C(=O)N[C@@H](C)C(=O)N[C@@H](C)C(=O)N[C@@H](C)C(=O)N[C@@H](CS)C(N)=O` [Ac-Cys-Ala-Ala-Ala-Cys-NH2] had a ring closure, halflife of 8 min. The ring closure, overall yield in data set [3] (19-membered ring) is 21%.

With `CC(=O)N[C@@H](CSC1=C(Br)C(=O)NC1=O)C(=O)N[C@@H](C)C(=O)N[C@@H](C)C(=O)N[C@@H](C)C(=O)N[C@H](CS)C(N)=O` [Ac-Cys-Ala-Ala-Ala-D-Cys-NH2], the ring closure, halflife in data set [2] (19-membered ring) worked out at 8 min. Besides, the ring closure, overall yield in data set [3] (19-membered ring) was 21%.

`CC(=O)N[C@@H](CSC1=C(Br)C(=O)NC1=O)C(=O)N[C@@H](C)C(=O)N[C@@H](C)C(=O)N[C@@H](C)C(=O)N[C@@H](CCS)C(N)=O` [Ac-Cys-Ala-Ala-Ala-hCys-NH2] returned a ring closure, halflife in data set [2] (20-membered ring) of 13 min. The compound also registered a ring closure, overall yield in data set [3] (20-membered ring) of 4%.

Compound `CC(=O)N[C@H](CSC1=C(Br)C(=O)NC1=O)C(=O)N[C@@H](C)C(=O)N[C@@H](C)C(=O)N[C@@H](C)C(=O)N[C@@H](CS)C(N)=O` [Ac-D-Cys-Ala-Ala-Ala-Cys-NH2] yielded a ring closure, halflife in data set [2] (19-membered ring) of 8 min. In data set [3] (19-membered ring), this compound displayed a ring closure, overall yield of 7%.

Take `CC(=O)N[C@H](CSC1=C(Br)C(=O)NC1=O)C(=O)N[C@@H](C)C(=O)N[C@@H](C)C(=O)N[C@@H](C)C(=O)N[C@H](CS)C(N)=O` [Ac-D-Cys-Ala-Ala-Ala-D-Cys-NH2]: the ring closure, halflife in data set [2] (19-membered ring) came to 10 min. The ring closure, overall yield in data set [3] (19-membered ring) was found to be 11%.

In data set [2] (20-membered ring), `CC(=O)N[C@@H](CCSC1=C(Br)C(=O)NC1=O)C(=O)N[C@@H](C)C(=O)N[C@@H](C)C(=O)N[C@@H](C)C(=O)N[C@@H](CS)C(N)=O` [Ac-hCys-Ala-Ala-Ala-Cys-NH2] came in with a ring closure, halflife of 11 min. In data set [3] (20-membered ring), this compound returned a ring closure, overall yield of 18%.

In data set [2] (21-membered ring), `CC(=O)N[C@@H](CCSC1=C(Br)C(=O)NC1=O)C(=O)N[C@@H](C)C(=O)N[C@@H](C)C(=O)N[C@@H](C)C(=O)N[C@@H](CCS)C(N)=O` [Ac-hCys-Ala-Ala-Ala-hCys-NH2] showed a ring closure, halflife of 9 min. In data set [3] (21-membered ring), the ring closure, overall yield was found to be 17%.
